Experimental data published in ChEMBL document CHEMBL1144544, “Solid-phase synthesis of a combinatorial library of dihydroceramide analogues and its activity in human alveolar epithelial cells” (Bioorg Med Chem, 2007).
The source made the active and inactive calls. The calls are words filed in the database; no cut-off is given here.

Tests used:
A549 [1] = assay: Cytotoxicity against human A549 cells upto 1 mM in presence of 10% FBS after 72 hrs by MTT test; assay type: cell-based; settings: a549, 72 h
A549 [2] = assay: Cytotoxicity against human A549 cells at 1 mM after 72 hrs by MTT test; assay type: cell-based; settings: a549, 72 h, 1000 µM
A549 [3] = assay: Cytotoxicity against human A549 cells after 72 hrs by MTT test; assay type: cell-based; settings: A549, 72 h
A549 [4] = assay: Cell cycle arrest in human A549 cells by accumulation at G2 phase after 72 hrs relative to control by flow cytometry; assay type: functional; design: concentration or dose not given beside the values
A549 [5] = assay: Cell cycle arrest in human A549 cells by accumulation at S phase after 72 hrs relative to control by flow cytometry; assay type: functional; design: concentration or dose not given beside the values
A549 [6] = assay: Cell cycle arrest in human A549 cells by accumulation at G0/G1 phase after 72 hrs relative to control by flow cytometry; assay type: functional; design: concentration or dose not given beside the values
A549 [7] = assay: Cell death of human A549 cells assessed as increase in number of apoptotic cells by annexin V and propidium iodide staining by flow cytometry; assay type: functional, cell-based
A549 [8] = assay: Cytotoxicity against human A549 cells in presence of 10% FBS after 72 hrs by MTT test; assay type: cell-based; settings: a549, 72 h
A549 [9] = assay: Cytotoxicity against human A549 cells upto 1 mM in presence of <=5% FBS after 72 hrs by MTT test; assay type: cell-based; settings: a549, 72 h

CCCCCCCCCCCCCCC[C@@H](O)[C@H](CO)NC(=O)CCCCC
Activity (A549 [1]): Not Active

CC(C)CC(=O)N[C@@H](CO)C(C)O (some centres not stated)
Activity (A549 [2]): Non-toxic

CCCCCCC(O)[C@H](CO)NC(=O)c1ccccc1 (some centres not stated)
IC50 (A549 [3]): 290 µM

CC(C)CC(=O)N[C@@H](CO)C(O)c1ccccc1 (some centres not stated)
Activity (A549 [2]): Non-toxic

CCCCCCCc1ccc(C(=O)N[C@@H](CO)C(O)c2ccccc2)cc1 (some centres not stated)
IC50 (A549 [3]): 20 µM

O=C(N[C@@H](CO)C(O)c1ccccc1)c1ccccc1 (some centres not stated)
IC50 (A549 [3]): 689 µM

O=C(N[C@@H](CO)C(O)c1ccccc1)c1ccc2ccccc2c1 (some centres not stated)
IC50 (A549 [3]): 580 µM

CCCCCCCCCCCCC(O)[C@H](CO)NC(=O)c1ccc(CCCCCCC)cc1 (some centres not stated)
Activity (A549 [4]): 4.4% | Activity (A549 [5]): 7.4% | Activity (A549 [6]): 88.2%

O=C(CCC1CCCC1)N[C@@H](CO)C(O)c1ccccc1 (some centres not stated)
IC50 (A549 [3]): 597 µM

CCCCCCCCCCCCC(O)[C@H](CO)NC(=O)c1ccccc1 (some centres not stated)
Activity (A549 [4]): 4.2% | Activity (A549 [5]): 12.8% | Activity (A549 [6]): 83%

CCCCCCCCCCCCC(O)[C@H](CO)NC(=O)Cc1ccc(OC)c(OC)c1 (some centres not stated)
Activity (A549 [4]): 7% | Activity (A549 [5]): 5.4% | Activity (A549 [6]): 86.5% | IC50 (A549 [3]): 20 µM

CCCCCCCCC(O)[C@H](CO)NC(=O)CC(C)C (some centres not stated)
Activity (A549 [4]): 5% | Activity (A549 [5]): 10.5% | Activity (A549 [6]): 84.5%

CCCCCCCCC(O)[C@H](CO)NC(=O)c1ccc(CCCCCCC)cc1 (some centres not stated)
Activity (A549 [4]): 4% | Activity (A549 [5]): 3.4% | Activity (A549 [7]): Active | Activity (A549 [6]): 92.6% | IC50 (A549 [3]): 20 µM

CCCCCCCCC(O)[C@H](CO)NC(=O)c1ccccc1 (some centres not stated)
Activity (A549 [4]): 2% | Activity (A549 [5]): 8.4% | Activity (A549 [6]): 89.6%

CCCCCCCCC(O)[C@H](CO)NC(=O)Cc1ccc(OC)c(OC)c1 (some centres not stated)
Activity (A549 [4]): 5.5% | Activity (A549 [5]): 10.5% | Activity (A549 [6]): 84%

COc1ccc(CC(=O)N[C@@H](CO)C(C)O)cc1OC (some centres not stated)
IC50 (A549 [3]): 410 µM

CCCCCCCCCCCCCCC[C@@H](O)[C@H](CO)NC(=O)c1ccc(CCCCCCC)cc1
Activity (A549 [7]): inactive

CCCCCCCCCCCCC(O)[C@H](CO)NC(=O)c1ccc2ccccc2c1 (some centres not stated)
Activity (A549 [4]): 2.2% | Activity (A549 [5]): 7.4% | Activity (A549 [6]): 90.4%

CCCCCCCCC(O)[C@H](CO)NC(=O)c1ccc2ccccc2c1 (some centres not stated)
Activity (A549 [4]): 3.4% | Activity (A549 [5]): 5.4% | Activity (A549 [6]): 91.2%

CCCCCCCCCCCCCCC[C@H](O)[C@H](CO)NC(=O)c1ccc(CCCCCCC)cc1
Activity (A549 [4]): 5.4% | Activity (A549 [5]): 11.5% | Activity (A549 [7]): Active | Activity (A549 [6]): 83.1% | IC50 (A549 [3]): 108 µM

CC(O)[C@H](CO)NC(=O)CCC1CCCC1 (some centres not stated)
Activity (A549 [2]): Non-toxic

CCCCCCCCCCCCC/C=C/[C@@H](O)[C@H](CO)NC(=O)CCCCC
Activity (A549 [8]): Dose-dependent effect | Activity (A549 [9]): Non-toxic | IC50 (A549 [3]): 35 µM

CC(O)[C@H](CO)NC(=O)c1ccccc1 (some centres not stated)
Activity (A549 [2]): Non-toxic

CCCCCCCCCCCCC(O)[C@H](CO)NC(=O)CC(C)C (some centres not stated)
Activity (A549 [4]): 4.4% | Activity (A549 [5]): 5.2% | Activity (A549 [6]): 89.8%

CC(O)[C@H](CO)NC(=O)c1ccc2ccccc2c1 (some centres not stated)
Activity (A549 [2]): Non-toxic

CCCCCCCc1ccc(C(=O)N[C@@H](CO)C(O)CCCCCC)cc1 (some centres not stated)
Activity (A549 [4]): 5.4% | Activity (A549 [5]): 8.1% | Activity (A549 [6]): 86.5% | IC50 (A549 [3]): 20 µM

CCCCCCC(O)[C@H](CO)NC(=O)CC(C)C (some centres not stated)
IC50 (A549 [3]): 302 µM

CCCCCCCCC(O)[C@H](CO)NC(=O)CCC1CCCC1 (some centres not stated)
Activity (A549 [4]): 2.2% | Activity (A549 [5]): 3.4% | Activity (A549 [6]): 94.4%
